# In patent US20120165325A1, “Stable forms of N-(2,6-Dimethyl-4-morpholin-4-yl-phenyl)-3,3-dimethyl-butyramide” (H. Lundbeck A/S, priority 2009, published 2012):
# Tested on: Male NMRI mice
# Assay: Forced swim test
# Assay type: in vivo, mouse
# Conditions: 30 min before test, last 3 min of 6 min swim, vehicle = 100
# Experimental: Subjects. Male NMRI mice (Charles River) weighing 23-25 g were used. The mice were kept 8 mice pr cage in a 12-hr light/dark cycle under controlled conditions for regular in-door temperature (21±2° C.) and humidity (55±5%) with food and tap water available ad libitum. 8 mice were used pr experimental group.
# Experimental procedure. The mice were placed in 2000 ml beaker containing 1200 ml of tempered water (25° C.) and left to swim for 6 min. The performance of the mice was video recorded, digitalized and analysed by means of a digital analysis system (Bioobserve). The time spent immobile for the last 3 min. of the test session was quantified for each mouse.
# Treatment. 30 min. before the test, mice were treated s.c. with N-(2,6-dimethyl-4-morpholin-4-yl-phenyl)-3,3-dimethyl-butyramide or vehicle (10-%-2-OH-propyl-cyclodextrin, 10 ml/kg). In addition as positive control, imipramine-HCl (40 mg/kg) and a saline control (10 ml/kg) was included.
# Analyses. The time spent immobile was statistically compared across the experimental groups against the relevant control group by means of one-way analysis of variance. A post-hoc test (Student-Newman-Keuls) was employed when appropriate. P-levels <0.05 were considered significant.
compound,measurement,setting,value
"Cc1cc(N2CCOCC2)cc(C)c1NC(=O)CC(C)(C)C [N-(2,6-dimethyl-4-morpholin-4-yl-phenyl)-3,3-dimethyl-butyramide]",Immobility in % (±S.D.),dose 1.3 mg/kg,102%
same,Immobility in % (±S.D.),dose 2.5 mg/kg,96.7%
same,Immobility in % (±S.D.),dose 5.0 mg/kg,82.3%
